Experimental data reported in patent publication US20100184596A1, “METHOD FOR THE CONTROL OF WEEDS IN TURF” (SYNGENTA CROP PROTECTION, INC., priority 2007, published 2010).

Tests used:
Assay type in all cases: in vivo
[1] = tested on: Clover; test: Selective post-emergence herbicidal action, field trial Champaign (Table B1.1); conditions: 22 days after application
Method: (§1) The selectivity of the compound of formula I in turf (removal of grassy and broadleaf weeds) has been tested in turfgrass varieties selected from Kentucky bluegrass, tall fescue and perennial ryegrass and in […] selected from clover (an aggressive perennial weed) and dandelion (a weed of perennial horticultural crops and gardens which may also be a problem in some annual crops, particularly where reduced tillage is practiced).
(§2) The trials were conducted in Champaign, Ill., U.S. (Table B1.1) and Hudson, N.Y., U.S. (Table B1.2) under field conditions. Turfgrasses were maintained at approximately a 2.5″ height, like a home lawn. Mixed turf and weed stands were present. The test compounds were applied with a CO2 pressurized backpack sprayer by spraying in the form of an aqueous suspension (prepared from a wettable powder) in a concentration of 210 to 280 g/ha. The plots were then mowed and irrigated as needed. After 22 and 28 days respectively, the test is visually evaluated (100%=total damage to plant; 0%=no damage to plant).

[2] = tested on: Kentucky blue grass; test: as above; conditions: 22 days after application
Method: as §1, §2

[3] = tested on: Perennial ryegrass; test: as above; conditions: 22 days after application
Method: as §1, §2

[4] = tested on: Tall fescue; test: as above; conditions: 22 days after application
Method: as §1, §2

[5] = tested on: Zoysiagrass v. Meyer; test: Phytotoxicity via post emergence spray application (Table B2.2)
Method: The phytotoxicity of the compound of formula I to turfgrass species was tested. The compound was applied via post emergence spray to a range of warm and cool season turfgrass species at various rates and spray treatment treatment regimes. Percentage phytotoxicity assessments were taken at various timepoints.

[6] = tested on: Hydrocotyle sp. (dollarweed); test: Weed control via post emergence spray, in St. Augustinegrass v. Floratam (Table B5.3)
Method: (§3) The weed control efficacy of the compound of formula I was tested. The compound was applied via post emergence spray to a range of weeds, at various rates and spray treatment treatment regimes. Percentage weed control assessments were taken at various timepoints.

[7] = tested on: Digitaria ischaemum (smooth crabgrass); test: Weed control via post emergence spray, in bluegrass/fescue mix (Table B5.7)
Method: as §3

[8] = tested on: Hydrocotyle sp. (dollarweed); test: Example B7, conclusion in words
Method: The weed control efficacy of the compound of formula I in combination with various safeners was tested. The combinations were applied by post emergence spray application. Percentage weed control assessments were taken at various timepoints.

[9] = tested on: Bermudagrass v. Tifway 419; test: Phytotoxicity via granule application (Table B3.2)

COCCOCc1nc(C(F)(F)F)ccc1C(=O)C1=C(O)C2CCC(C2)C1=O (stereo not drawn) [Formula I, 4-Hydroxy-3-[2-(2-methoxyethoxymethyl)-6-trifluoromethylpyridine-3-carbonyl]-bicyclo[3.2.1]oct-3-en-2-one]
% damage ([1]; 210 g/ha): 88%
% damage ([1]; 280 g/ha): 92%
% damage ([2]; 210 g/ha): 0%
% damage ([2]; 280 g/ha): 0%
% damage ([3]; 210 g/ha): 0%
% damage ([3]; 280 g/ha): 0%
% damage ([4]; 210 g/ha): 0%
% damage ([4]; 280 g/ha): 0%
% phytotoxicity ([5]; 1 appl, 140 g ai/ha, 8 DAT): 42.50%
% phytotoxicity ([5]; 1 appl, 140 g ai/ha, 14 DAT): 51.25%
% phytotoxicity ([5]; 1 appl, 140 g ai/ha, 29 DAT): 41.25%
% phytotoxicity ([5]; 1 appl, 140 g ai/ha, 35 DAT): 25.00%
% phytotoxicity ([5]; 1 appl, 140 g ai/ha, 43 DAT): 7.50%
% phytotoxicity ([5]; 1 appl, 140 g ai/ha, 51 DAT): 5.00%
% phytotoxicity ([5]; 1 appl, 140 g ai/ha, 60 DAT): 0.00%
% phytotoxicity ([5]; 1 appl, 280 g ai/ha, 8 DAT): 45.00%
% phytotoxicity ([5]; 1 appl, 280 g ai/ha, 14 DAT): 57.50%
% phytotoxicity ([5]; 1 appl, 280 g ai/ha, 29 DAT): 61.25%
% phytotoxicity ([5]; 1 appl, 280 g ai/ha, 35 DAT): 28.75%
% phytotoxicity ([5]; 1 appl, 280 g ai/ha, 43 DAT): 8.75%
% phytotoxicity ([5]; 1 appl, 280 g ai/ha, 51 DAT): 3.75%
% phytotoxicity ([5]; 1 appl, 280 g ai/ha, 60 DAT): 0.00%
% phytotoxicity ([5]; 2 appl, 140 g ai/ha, 8 DAT): 33.75%
% phytotoxicity ([5]; 2 appl, 140 g ai/ha, 14 DAT): 47.50%
% phytotoxicity ([5]; 2 appl, 140 g ai/ha, 29 DAT): 17.50%
% phytotoxicity ([5]; 2 appl, 140 g ai/ha, 35 DAT): 43.75%
% phytotoxicity ([5]; 2 appl, 140 g ai/ha, 43 DAT): 27.50%
% phytotoxicity ([5]; 2 appl, 140 g ai/ha, 51 DAT): 8.75%
% phytotoxicity ([5]; 2 appl, 140 g ai/ha, 60 DAT): 0.00%
% phytotoxicity ([5]; 2 appl, 280 g ai/ha, 8 DAT): 38.75%
% phytotoxicity ([5]; 2 appl, 280 g ai/ha, 14 DAT): 57.50%
% phytotoxicity ([5]; 2 appl, 280 g ai/ha, 29 DAT): 52.50%
% phytotoxicity ([5]; 2 appl, 280 g ai/ha, 35 DAT): 47.50%
% phytotoxicity ([5]; 2 appl, 280 g ai/ha, 43 DAT): 28.75%
% phytotoxicity ([5]; 2 appl, 280 g ai/ha, 51 DAT): 12.50%
% phytotoxicity ([5]; 2 appl, 280 g ai/ha, 60 DAT): 0.00%
% control ([6]; 1 appl, 140 g ai/ha, 5 DAT): 10.00%
% control ([6]; 1 appl, 140 g ai/ha, 13 DAT): 60.00%
% control ([6]; 1 appl, 140 g ai/ha, 21 DAT): 50.00%
% control ([6]; 1 appl, 280 g ai/ha, 5 DAT): 15.00%
% control ([6]; 1 appl, 280 g ai/ha, 13 DAT): 57.50%
% control ([6]; 1 appl, 280 g ai/ha, 21 DAT): 60.00%
% control ([6]; 2 appl, 140 g ai/ha, 5 DAT): 15.00%
% control ([6]; 2 appl, 140 g ai/ha, 13 DAT): 55.00%
% control ([6]; 2 appl, 140 g ai/ha, 21 DAT): 52.50%
% control ([6]; 2 appl, 280 g ai/ha, 5 DAT): 20.00%
% control ([6]; 2 appl, 280 g ai/ha, 13 DAT): 65.00%
% control ([6]; 2 appl, 280 g ai/ha, 21 DAT): 62.50%
% control ([7]; 10 g ai/ha, 7 DAT): 0.00%
% control ([7]; 10 g ai/ha, 14 DAT): 0.00%
% control ([7]; 10 g ai/ha, 22 DAT): 0.00%
% control ([7]; 10 g ai/ha, 29 DAT): 0.00%
% control ([7]; 10 g ai/ha, 46 DAT): 1.25%
% control ([7]; 20 g ai/ha, 7 DAT): 0.00%
% control ([7]; 20 g ai/ha, 14 DAT): 2.50%
% control ([7]; 20 g ai/ha, 22 DAT): 5.00%
% control ([7]; 20 g ai/ha, 29 DAT): 3.75%
% control ([7]; 20 g ai/ha, 46 DAT): 7.50%
% control ([7]; 40 g ai/ha, 7 DAT): 0.00%
% control ([7]; 40 g ai/ha, 14 DAT): 0.00%
% control ([7]; 40 g ai/ha, 22 DAT): 2.50%
% control ([7]; 40 g ai/ha, 29 DAT): 8.75%
% control ([7]; 40 g ai/ha, 46 DAT): 30.00%
% control ([7]; 80 g ai/ha, 7 DAT): 0.00%
% control ([7]; 80 g ai/ha, 14 DAT): 0.00%
% control ([7]; 80 g ai/ha, 22 DAT): 5.00%
% control ([7]; 80 g ai/ha, 29 DAT): 17.50%
% control ([7]; 80 g ai/ha, 46 DAT): 51.25%
% control ([7]; 160 g ai/ha, 7 DAT): 0.00%
% control ([7]; 160 g ai/ha, 14 DAT): 6.25%
% control ([7]; 160 g ai/ha, 22 DAT): 8.75%
% control ([7]; 160 g ai/ha, 29 DAT): 20.00%
% control ([7]; 160 g ai/ha, 46 DAT): 70.00%
herbicidal efficacy in presence of a safener, in words [8]: does not significantly effect the herbicidal efficacy
% phytotoxicity ([9]; Granule A (inert), 112 g ai/ha, 15 DAT): 0.00%
% phytotoxicity ([9]; Granule A (inert), 112 g ai/ha, 20 DAT): 0.00%
% phytotoxicity ([9]; Granule A (inert), 112 g ai/ha, 28 DAT): 0.00%
% phytotoxicity ([9]; Granule A (inert), 280 g ai/ha, 28 DAT): 0.00%
% phytotoxicity ([9]; Granule B (fertiliser), 112 g ai/ha, 11 DAT): 4.00%
% phytotoxicity ([9]; Granule B (fertiliser), 112 g ai/ha, 15 DAT): 0.00%
% phytotoxicity ([9]; Granule B (fertiliser), 112 g ai/ha, 20 DAT): 0.00%
% phytotoxicity ([9]; Granule B (fertiliser), 112 g ai/ha, 28 DAT): 0.00%
% phytotoxicity ([9]; Granule B (fertiliser), 280 g ai/ha, 11 DAT): 15.00%
% phytotoxicity ([9]; Granule B (fertiliser), 280 g ai/ha, 15 DAT): 3.30%
% phytotoxicity ([9]; Granule B (fertiliser), 280 g ai/ha, 20 DAT): 1.30%
% phytotoxicity ([9]; Granule B (fertiliser), 280 g ai/ha, 28 DAT): 0.00%
% phytotoxicity ([9]; Spray, 112 g ai/ha, 7 DAT): 30.00%
% phytotoxicity ([9]; Spray, 112 g ai/ha, 11 DAT): 18.30%
% phytotoxicity ([9]; Spray, 112 g ai/ha, 15 DAT): 10.00%
% phytotoxicity ([9]; Spray, 112 g ai/ha, 20 DAT): 3.00%
% phytotoxicity ([9]; Spray, 112 g ai/ha, 28 DAT): 0.00%
% phytotoxicity ([9]; Spray, 280 g ai/ha, 7 DAT): 66.70%
% phytotoxicity ([9]; Spray, 280 g ai/ha, 11 DAT): 25.00%
% phytotoxicity ([9]; Spray, 280 g ai/ha, 15 DAT): 10.00%
% phytotoxicity ([9]; Spray, 280 g ai/ha, 20 DAT): 6.00%
% phytotoxicity ([9]; Spray, 280 g ai/ha, 28 DAT): 0.00%
